Source: PubChem BioAssay AID200 (DTP/NCI, 2004)
“And” between values parts separate entries of the source, which are not always exact repeats. Equal entries are not always repeated. Inconclusive results and toxic doses are left out.

Test system: B6C3F1 mice, B16 melanoma ip, median survival T/C
Assay: NCI In Vivo Anticancer Drug Screen. Data for tumor model B16 Melanoma (intraperitoneal) in B6C3F1 mice
Details: endpoint: median survival time, schedule: Q01DX009 (ip), higher = longer survival
How it was run: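 Transplantable tumor in mice; treated vs vehicle control groups; survival or tumor size measured; value = T/C ratio.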

[1] = dose: 25.0 mg/kg/injection, vehicle: suspension in saline
[2] = dose: 50.0 mg/kg/injection, vehicle: suspension in saline
[3] = dose: 100.0 mg/kg/injection, vehicle: suspension in saline
[4] = dose: 200.0 mg/kg/injection, vehicle: suspension in saline
[5] = dose: 3.12 mg/kg/injection, vehicle: saline with Tween-80
[6] = dose: 6.25 mg/kg/injection, vehicle: saline with Tween-80
[7] = dose: 12.5 mg/kg/injection, vehicle: saline with Tween-80
[8] = dose: 25.0 mg/kg/injection, vehicle: saline with Tween-80
[9] = dose: 50.0 mg/kg/injection, vehicle: saline with Tween-80
[10] = dose: 3.0 mg/kg/injection, vehicle: saline
[11] = dose: 1.5 mg/kg/injection, vehicle: saline
[12] = dose: 6.0 mg/kg/injection, vehicle: saline
[13] = dose: 100.0 mg/kg/injection, vehicle: saline with Tween-80
[14] = dose: 12.5 mg/kg/injection, vehicle: distilled water + Tween-80
[15] = dose: 25.0 mg/kg/injection, vehicle: distilled water + Tween-80
[16] = dose: 50.0 mg/kg/injection, vehicle: distilled water + Tween-80
[17] = dose: 100.0 mg/kg/injection, vehicle: distilled water + Tween-80
[18] = dose: 25.0 mg/kg/injection, vehicle: Klucel (hydroxypropylcellulose) (HPC)
[19] = dose: 50.0 mg/kg/injection, vehicle: Klucel (hydroxypropylcellulose) (HPC)
[20] = dose: 200.0 mg/kg/injection, vehicle: saline with Tween-80
[21] = dose: 6.25 mg/kg/injection, vehicle: Klucel (hydroxypropylcellulose) (HPC)
[22] = dose: 12.5 mg/kg/injection, vehicle: Klucel (hydroxypropylcellulose) (HPC)

COc1cc2c(c(OC)c1OC)-c1cccc(=O)cc1C(NC(C)=O)CC2 (stereo not given)
T/C (dose: 1.25 mg/kg/injection, vehicle: water): 98 % of control
T/C (dose: 2.5 mg/kg/injection, vehicle: saline): 97 % of control
T/C (dose: 2.5 mg/kg/injection, vehicle: water): 102 % of control
T/C (dose: 5.0 mg/kg/injection, vehicle: saline): 100 % of control
T/C (dose: 5.0 mg/kg/injection, vehicle: water): 97 % of control
T/C (dose: 10.0 mg/kg/injection, vehicle: saline): 116 % of control
T/C (dose: 10.0 mg/kg/injection, vehicle: water): 96 % of control
T/C (dose: 20.0 mg/kg/injection, vehicle: saline): 99 % of control
T/C (dose: 20.0 mg/kg/injection, vehicle: water): 103 % of control
T/C (dose: 40.0 mg/kg/injection, vehicle: saline): 103 % of control

Cc1cc2nc3c(=O)[nH]c(=O)nc-3n(CC(O)C(O)C(O)C(O)CO)c2cc1C (stereo not given)
T/C [1]: 104 % of control
T/C [2]: 111 % of control
T/C [3]: 102 % of control
T/C [4]: 93 % of control

O=Cc1ccc([N+](=O)[O-])s1
T/C [5]: 98 % of control
T/C [6]: 105 % of control
T/C [7]: 101 % of control
T/C [8]: 101 % of control
T/C [9]: 88 % of control

CCCCCCCC(=O)[O][Hg][CH2]C1COC([CH2][Hg][O]C(=O)CCCCCCC)CO1 (stereo not given)
T/C (dose: 1.56 mg/kg/injection, vehicle: saline with Tween-80): 95 % of control and 102 % of control
T/C [5]: 96 % of control and 103 % of control
T/C [6]: 94 % of control and 101 % of control
T/C [7]: 93 % of control and 97 % of control
T/C [8]: 91 % of control

CCCCCCCCCCCCCCCCS(=O)CC(O)COC(=O)c1ccc(C(=O)OCC(O)CS(=O)CCCCCCCCCCCCCCCC)cc1 (stereo not given)
T/C (dose: 12.5 mg/kg/injection, vehicle: saline + alcohol): 100 % of control
T/C (dose: 25.0 mg/kg/injection, vehicle: saline + alcohol): 86 % of control
T/C (dose: 50.0 mg/kg/injection, vehicle: saline + alcohol): 87 % of control

C[N+](C)=C1C=CC(=C2C=CSC=C2)C=C1
T/C [10]: 115 % of control
T/C (dose: 6.25 mg/kg/injection, vehicle: saline): 116 % of control

Nc1cccc(=O)[nH]1
T/C [1]: 93 % of control
T/C [2]: 95 % of control
T/C [3]: 94 % of control
T/C [4]: 94 % of control
T/C (dose: 400.0 mg/kg/injection, vehicle: suspension in saline): 93 % of control

ClCC[Se](Cl)(Cl)c1ccccc1
T/C [11]: 102 % of control
T/C (dose: 1.56 mg/kg/injection, vehicle: saline): 113 % of control
T/C [10]: 116 % of control
T/C [12]: 108 % of control

Cc1ccc(N=NN(C)C)cc1
T/C [8]: 100 % of control
T/C [9]: 110 % of control
T/C [13]: 107 % of control

Nc1nc2c(ncn2C2OC(CO)C(O)C2O)c(=O)[nH]1 (stereo not given)
T/C (dose: 75.0 mg/kg/injection, vehicle: saline with Tween-80): 120 % of control
T/C (dose: 1200.0 mg/kg/injection, vehicle: saline with Tween-80): 121 % of control
T/C (dose: 2400.0 mg/kg/injection, vehicle: saline with Tween-80): 116 % of control

O=C(O)CCCCCCCC(=O)O
T/C [14]: 91 % of control
T/C [15]: 101 % of control
T/C [16]: 101 % of control
T/C [17]: 91 % of control

CCCNc1ncnc2c1cnn2C
T/C (dose: 12.5 mg/kg/injection, vehicle: saline): 91 % of control
T/C (dose: 25.0 mg/kg/injection, vehicle: saline): 93 % of control

CC(=O)OC1=C(Br)CCc2ccccc21
T/C (dose: 3.12 mg/kg/injection, vehicle: DMSO): 88 % of control
T/C (dose: 6.25 mg/kg/injection, vehicle: DMSO): 87 % of control
T/C (dose: 12.5 mg/kg/injection, vehicle: DMSO): 88 % of control
T/C (dose: 25.0 mg/kg/injection, vehicle: DMSO): 91 % of control

NCCCCC(NC(=O)OCC1c2ccccc2-c2ccccc21)C(=O)O (stereo not given)
T/C [18]: 92 % of control
T/C [19]: 101 % of control
T/C (dose: 100.0 mg/kg/injection, vehicle: Klucel (hydroxypropylcellulose) (HPC)): 97 % of control and 100 % of control

Cc1ccc(Cl)c2ccccc12
T/C [7]: 101 % of control and 104 % of control
T/C [8]: 100 % of control and 101 % of control and 104 % of control
T/C [9]: 101 % of control and 105 % of control and 107 % of control
T/C [13]: 94 % of control and 98 % of control
T/C [20]: 94 % of control

O=C(Nc1ccc(N=C=S)cc1Cl)c1cc(Cl)cc(Cl)c1O
T/C [21]: 107 % of control
T/C [22]: 98 % of control
T/C [18]: 116 % of control

CCCCCCCCCCC(OC(C)=O)C1CCC(C2CCC(C(O)CCCCCCCCCCCCC3C=C(C)OC3=O)O2)O1 (stereo not given)
T/C (dose: 0.25 mg/kg/injection, vehicle: water): 97 % of control
T/C (dose: 0.5 mg/kg/injection, vehicle: water): 95 % of control
T/C (dose: 1.0 mg/kg/injection, vehicle: water): 93 % of control
T/C (dose: 2.0 mg/kg/injection, vehicle: water): 100 % of control
T/C (dose: 4.0 mg/kg/injection, vehicle: water): 100 % of control

C[Si](C)(C)O/C=C1\CCCCC1=O
T/C [6]: 105 % of control
T/C [7]: 104 % of control
T/C [8]: 113 % of control
T/C [9]: 105 % of control
T/C [13]: 110 % of control
T/C [20]: 97 % of control

CC(=O)OCC1OC(OC2=C(CC=C(C)C)C(=O)c3ccccc3C2=O)C(OC(C)=O)C(OC(C)=O)C1OC(C)=O (stereo not given)
T/C (dose: 3.12 mg/kg/injection, vehicle: Klucel (hydroxypropylcellulose) (HPC)): 104 % of control
T/C [21]: 95 % of control
T/C [22]: 98 % of control
T/C [18]: 106 % of control
T/C [19]: 94 % of control

CCOC(=O)c1ccc(NC(=O)Nc2nncs2)cc1
T/C (dose: 6.25 mg/kg/injection, vehicle: distilled water + Tween-80): 100 % of control
T/C [14]: 110 % of control
T/C [15]: 115 % of control
T/C [16]: 121 % of control
T/C [17]: 121 % of control
T/C (dose: 200.0 mg/kg/injection, vehicle: distilled water + Tween-80): 105 % of control

CCCCCCCCCCCCCCCCCC(=O)OCC(=O)OCC(=O)[C@]1(O)Cc2c(O)c3c(c(O)c2[C@@H](OC2CC(N)C(O)C(C)O2)C1)C(=O)c1c(OC)cccc1C3=O (stereo not given in full)
T/C (dose: 0.75 mg/kg/injection, vehicle: saline): 160 % of control and 211 % of control
T/C [11]: 208 % of control and 333 % of control
T/C [10]: 255 % of control and 333 % of control
T/C [12]: 238 % of control and 333 % of control

CNC(=O)O/N=C(\CN=[N+]=[N-])C(C)(C)C
T/C (dose: 0.12 mg/kg/injection, vehicle: saline): 104 % of control
T/C (dose: 0.25 mg/kg/injection, vehicle: saline): 99 % of control
T/C (dose: 0.5 mg/kg/injection, vehicle: saline): 118 % of control
T/C (dose: 1.0 mg/kg/injection, vehicle: saline): 101 % of control
